Where a name gives a salt, the structure may show the parent alone.
Legend:
[1] = test system: kiichigo; assay: Experiment 3 foliar application to naturally growing shrubs; assay type: in vivo, Rubus palmatsu Thunb. forma coptophyllus Makino
Text: (§1) The detail of the assessment made in the following Experiments of the invention was as follows:
(§2) Four months after treatment, evaluation was made for inhibition of reproduction expressed in terms of symbols ranging from (-) to (+++) where (-) means no reproduction, namely complete suppression of reproduction, (±) remarkable suppression of reproduction; (+) considerable suppression of reproduction; (++) medium supprestion of reproduction; and (+++) no suppression of reproduction.
(§3) The compounds of the invention and other compounds listed in Table 5. were diluted to prescribed concentrations and sprayed onto naturally growing shrubs by foliar application in an amount of 150 liter per 10 are.
(§4) 0.1% of octylphenyl polyoxyethanol was added as the surfactant. The killing index (0, no effect; 5, death) after 1 month and 3 months, and the reproduction-inhibiting effect (-, no reproduction; +++, maximum reproduction) after 3 months were determined.

[2] = test system: eulalia; assay: Experiment 2 foliar application in Japanese cypress afforested land; assay type: in vivo, Miscanthus sinensis Andress.; parameters: key: 0 = no effect, 5 = death; settings: 0.125%
Method: as §1
(§5) The compounds of the invention and other compounds listed in Table 4. were diluted to prescribed concentrations and sprayed to shrubs by foliar application in a Japanese cypress afforested land in an amount of 150 liter per 10 are.
(§6) After 30 days and 3 months, the killing index (0, no effect; 5, death) was determined.
(§7) The heights of plants were 50-70 cm. for Japanese cypress, about 50 cm. for chestnut, 50-90 cm. for miyakozasa, about 100 cm. for eulalia and 70-100 cm. for kumaichigo, respectively.

[3] = test system: purple nutsedge; assay: Experiment 1 foliar application to naturally growing weeds; assay type: in vivo, Cyperus rotundus L.; settings: 4 months
Text: as §1, §2
(§8) The compounds of the invention and other compounds for comparison listed in Table 3 were diluted to prescribed concentrations and sprayed to naturally growing weeds by foliar application in an amount of 150 liter per 10 are.
(§9) 0.1% of octylphenyl polyoxyethanol was added as a surfactant.
(§10) The killing index (0, no effect, 5, death) after 21 days, and the reproduction-inhibiting effect (-, no reproduction; +++, maximum reproduction) after 2 months (manna grass and cockspar grass) and 4 months (other weeds) were determined.

[4] = test system: white clover; assay: as above; assay type: in vivo, Trifolium repens L.; settings: for Reproduction-inhibiting effect: 4 months
Text: as §1, §2, §8, §9, §10

[5] = test system: Japanese bush cranberry; assay: Experiment 3 foliar application to naturally growing shrubs; assay type: in vivo, Viburnum dilatatum Thunb.; settings: for Reproduction-inhibiting: after 3 months
Text: as §1, §2, §3, §4

[6] = test system: lace shrub; assay: as above; assay type: in vivo, Stephanandra incisa Zabel; settings: for Reproduction-inhibiting: after 3 months; for Killing index: after 30 days
Text: as §1, §2, §3, §4

[7] = test system: manna grass; assay: Experiment 1 foliar application to naturally growing weeds; assay type: in vivo, Digitaria adsceudes Henr.; settings: for Reproduction-inhibiting effect: 2 months
Text: as §1, §2, §8, §9, §10

[8] = test system: hedge bindweed; assay: as above; assay type: in vivo, Calystegis hederacea Wall.; settings: 4 months
Text: as §1, §2, §8, §9, §10

[9] = test system: kumaichigo; assay: Experiment 2 foliar application in Japanese cypress afforested land; assay type: in vivo, Rubus crataegifolius Bunge; settings: 0.125%, after 30 days
Method: as §1, §5, §6, §7

[10] = test system: torch azalea; assay: Experiment 3 foliar application to naturally growing shrubs; assay type: in vivo, Rhododendoron Kaempferi Planch.; settings: after 3 months
Text: as §1, §2, §3, §4

[11] = test system: oak; assay: as above; assay type: in vivo, Quercus serrata Thunb; settings: after 3 months
Text: as §1, §2, §3, §4

[12] = test system: azumanezasa; assay: Experiment 1 foliar application to naturally growing weeds; assay type: in vivo, Pleioblastus Chino Makino; settings: for Reproduction-inhibiting effect: 4 months; for Killing index of Upperground parts: 21 days
Text: as §1, §2, §8, §9, §10

[13] = test system: chigaya; assay: as above; assay type: in vivo, Imperata cylindrica Beauv.; settings: 4 months
Text: as §1, §2, §8, §9, §10

[14] = test system: Japanese prickly ash; assay: Experiment 3 foliar application to naturally growing shrubs; assay type: in vivo, Xanthoxylum piperitum DC.; settings: after 3 months
Text: as §1, §2, §3, §4

[15] = test system: warunasubi; assay: Experiment 1 foliar application to naturally growing weeds; assay type: in vivo, Solanum carolinensis L.; settings: 4 months
Text: as §1, §2, §8, §9, §10

[16] = test system: yabugarashi; assay: as above; assay type: in vivo, Cayratia japonica Houtt.; settings: 4 months
Text: as §1, §2, §8, §9, §10

[17] = test system: yamazakura; assay: Experiment 3 foliar application to naturally growing shrubs; assay type: in vivo, Prunus donarium Sieb. var. spontanae Makino; settings: after 3 months
Text: as §1, §2, §3, §4

[18] = test system: cockspar grass; assay: Experiment 1 foliar application to naturally growing weeds; assay type: in vivo, Echinochloa Crusgalli P. Beauv.; settings: for Reproduction-inhibiting effect: 2 months
Text: as §1, §2, §8, §9, §10

[19] = test system: water hyacinth; assay: Experiment 5 foliar application to water hyacinths; assay type: in vivo, Eichhornia crassipes Solms; settings: 3 months
Text: as §1, §2
Water was placed in 20 cm.×30 cm. plastic vessels and a liquid fertilizer was added thereto. Two water hyacinths were floated in each vessel.
0.1 or 0.2% aqueous solutions of each of the compounds of the invention listed in Table 7 were sprayed by foliar application in an amount of 100 liter per 10 are. As a surfactant, 0.1% of octylphenyl polyoxyethanol was added.
The killing index (0, no effect; 5, death) after 21 days and 3 months, and the reproduction-inhibiting effect (-, no reproduction; +++, maximum reproduction) after 3 months were determined.

[20] = 0.05%, after 3 months, monosodium salt

## CP(=O)(O)CC[C@H](N)C(=O)O [L-2-Amino-4-methylphosphinobutanoic acid monodiethanolammoni] [L-2-Amino-4-methylphosphinobutanoic acid monodiethanolammonium salt]
[1]; 0.05%, after 3 months
  Reproduction-inhibiting: ++
[1]; 0.05%, after 30 days
  Killing index: 3.5
[1]; 0.1%, after 3 months
  Reproduction-inhibiting: -
[1]; 0.2%, after 3 months
  Reproduction-inhibiting: -
[2]; after 30 days
  Killing index: 3.5
[3]; 0.05%
  Reproduction-inhibiting effect: +++
[3]; 0.1%
  Reproduction-inhibiting effect: +
[3]; 0.2%
  Reproduction-inhibiting effect: ±
[4]; 0.05%
  Reproduction-inhibiting effect: +++
[4]; 0.1%
  Reproduction-inhibiting effect: -
[4]; 0.2%
  Reproduction-inhibiting effect: -
[5]; 0.05%
  Reproduction-inhibiting: +++
[5]; 0.1%
  Reproduction-inhibiting: ++
[5]; 0.1%, after 30 days
  Killing index: 4.5
[5]; 0.2%
  Reproduction-inhibiting: -
[6]; 0.05%
  Reproduction-inhibiting: ++
  Killing index: 3.5
[6]; 0.1%
  Reproduction-inhibiting: -
[6]; 0.2%
  Reproduction-inhibiting: -
[7]; 0.05%
  Reproduction-inhibiting effect: ++
[7]; 0.1%
  Reproduction-inhibiting effect: -
[7]; 0.2%
  Reproduction-inhibiting effect: -
[8]; 0.05%
  Reproduction-inhibiting effect: +++
[8]; 0.1%
  Reproduction-inhibiting effect: ++
[8]; 0.2%
  Reproduction-inhibiting effect: +
[9]
  Killing index: 4.5
[10]; 0.05%
  Reproduction-inhibiting: +++
[10]; 0.1%
  Reproduction-inhibiting: -
[10]; 0.2%
  Reproduction-inhibiting: -
[11]; 0.05%
  Reproduction-inhibiting: ++
[11]; 0.1%
  Reproduction-inhibiting: -
[11]; 0.2%
  Reproduction-inhibiting: -
[12]; 0.05%
  Reproduction-inhibiting effect: ++
[12]; 0.1%
  Reproduction-inhibiting effect: -
[12]; 0.2%
  Reproduction-inhibiting effect: -
[13]; 0.05%
  Reproduction-inhibiting effect: ++
[13]; 0.1%
  Reproduction-inhibiting effect: -
[13]; 0.2%
  Reproduction-inhibiting effect: -
[14]; 0.05%
  Reproduction-inhibiting: +++
[14]; 0.1%
  Killing index: 4.5
  Reproduction-inhibiting: ±
[14]; 0.2%
  Reproduction-inhibiting: -
[15]; 0.05%
  Reproduction-inhibiting effect: +++
[15]; 0.1%
  Reproduction-inhibiting effect: +
[15]; 0.2%
  Reproduction-inhibiting effect: ±
[16]; 0.05%
  Reproduction-inhibiting effect: ++
[16]; 0.1%
  Reproduction-inhibiting effect: +
[16]; 0.2%
  Reproduction-inhibiting effect: ±
[17]; 0.05%
  Reproduction-inhibiting: ++
[17]; 0.1%
  Reproduction-inhibiting: -
[17]; 0.2%
  Reproduction-inhibiting: -
[18]; 0.05%
  Reproduction-inhibiting effect: ++
[18]; 0.1%
  Reproduction-inhibiting effect: -
[18]; 0.2%
  Reproduction-inhibiting effect: -

## CP(=O)(O)CC[C@H](N)C(=O)O [L-2-Amino-4-methylphosphinobutanoic acid monosodium salt]
[1]; [20]
  Killing index: 1.5
  Reproduction-inhibiting: ++
[1]; 0.05%, after 30 days, monosodium salt
  Killing index: 3.5
[1]; 0.1%, after 3 months
  Reproduction-inhibiting: -
[1]; 0.2%, after 3 months
  Reproduction-inhibiting: -
[2]; after 3 months, monosodium salt
  Killing index: 4.5
[2]; after 30 days, monosodium salt
  Killing index: 3.5
[3]; 0.05%, monosodium salt
  Reproduction-inhibiting effect: +++
[3]; 0.1%, monosodium salt
  Reproduction-inhibiting effect: +
[3]; 0.2%, monosodium salt
  Reproduction-inhibiting effect: ±
[4]; 0.05%, monosodium salt
  Reproduction-inhibiting effect: +++
[4]; 0.1%, monosodium salt
  Reproduction-inhibiting effect: +
[4]; 0.1%, 21 days, monosodium salt
  Killing index of Upperground parts: 4.5
[4]; 0.2%
  Reproduction-inhibiting effect: -
[5]; 0.05%, monosodium salt
  Reproduction-inhibiting: +++
[5]; 0.1%, monosodium salt
  Reproduction-inhibiting: ++
[5]; 0.2%
  Reproduction-inhibiting: -
[6]; 0.05%, monosodium salt
  Reproduction-inhibiting: ++
  Killing index: 3.5
[6]; 0.1%
  Reproduction-inhibiting: -
[6]; 0.2%
  Reproduction-inhibiting: -
[7]; 0.05%, monosodium salt
  Reproduction-inhibiting effect: ++
[7]; 0.1%, monosodium salt
  Reproduction-inhibiting effect: ±
[7]; 0.1%, 21 days, monosodium salt
  Killing index of Upperground parts: 4.5
[7]; 0.2%
  Reproduction-inhibiting effect: -
[19]; 0.1%, listed as L-AMPB monosodium salt, monosodium salt
  Reproduction-inhibiting effect: ±
[19]; 0.2%
  Reproduction-inhibiting effect: -
[8]; 0.05%, monosodium salt
  Reproduction-inhibiting effect: +++
[8]; 0.1%, monosodium salt
  Reproduction-inhibiting effect: ++
[8]; 0.2%, monosodium salt
  Reproduction-inhibiting effect: +
[9]; monosodium salt
  Killing index: 4.5
[10]; 0.05%, monosodium salt
  Reproduction-inhibiting: +++
[10]; 0.1%
  Reproduction-inhibiting: -
[10]; 0.2%
  Reproduction-inhibiting: -
[11]; 0.05%, monosodium salt
  Reproduction-inhibiting: ++
[11]; 0.1%
  Reproduction-inhibiting: -
[11]; 0.2%
  Reproduction-inhibiting: -
[12]; 0.05%, monosodium salt
  Reproduction-inhibiting effect: ++
  Killing index of Upperground parts: 2.5
[12]; 0.1%
  Reproduction-inhibiting effect: -
[12]; 0.1%, monosodium salt
  Killing index of Upperground parts: 4.5
[12]; 0.2%
  Reproduction-inhibiting effect: -
[13]; 0.05%, monosodium salt
  Reproduction-inhibiting effect: ++
[13]; 0.1%
  Reproduction-inhibiting effect: -
[13]; 0.2%
  Reproduction-inhibiting effect: -
[14]; 0.05%, monosodium salt
  Reproduction-inhibiting: +++
[14]; 0.1%, monosodium salt
  Reproduction-inhibiting: +
[14]; 0.2%
  Reproduction-inhibiting: -
[15]; 0.05%, monosodium salt
  Reproduction-inhibiting effect: +++
[15]; 0.1%, monosodium salt
  Reproduction-inhibiting effect: +
[15]; 0.2%, monosodium salt
  Reproduction-inhibiting effect: ±
[16]; 0.05%, monosodium salt
  Reproduction-inhibiting effect: ++
[16]; 0.1%, monosodium salt
  Reproduction-inhibiting effect: +
[16]; 0.2%, monosodium salt
  Reproduction-inhibiting effect: ±
[17]; 0.05%, monosodium salt
  Killing index: 1.5
  Reproduction-inhibiting: ++
[17]; 0.1%
  Reproduction-inhibiting: -
[17]; 0.2%
  Reproduction-inhibiting: -
[18]; 0.05%, monosodium salt
  Reproduction-inhibiting effect: ++
[18]; 0.1%, monosodium salt
  Reproduction-inhibiting effect: ±
[18]; 0.1%, 21 days, monosodium salt
  Killing index of Upperground parts: 4.5
[18]; 0.2%
  Reproduction-inhibiting effect: -

— US4226610A, “Herbicidal compounds, preparation thereof and herbicides containing the same” (Meiji Selka Kaisha, Ltd., priority 1978, dated 1980)
